Legend:
[1] = target: T1, Electrophorus electricus AChE (Electrophorus electricus, UniProt O42275); experiment: biochemical; details: for inhibition at 1 µM: read-out: % Inhibition at concentration of 1 μM, 1 μM; for IC50: concentration producing 50% inhibition of enzyme activity, triplicate independent experiments
T1 construct: purchased Sigma-Aldrich, USA Type VI-S
Description: The AChE inhibitory activity of the synthesized compounds was evaluated by Ellman’s method using Electrophorus electricus AChE; donepezil hydrochloride and tacrine were used as the reference compounds.
AChE (Electrophorus electricus, Type VI-S, lyophilized powder) was purchased from Sigma-Aldrich, USA. Acetylthiocholine, 5,5′-dithiobis(2-nitrobenzoic acid), sodium dihydrogen phosphate, disodium hydrogen phosphate, and sodium hydrogen carbonate were obtained from Fluka, Switzerland. AChE inhibitory activity was […]
USA) based on Ellman’s method with slight modifications. For each assay, 200 μL of the assay medium containing 100 μL of 0.1 M phosphate buffer (pH 8), 20 μL of 3.3 mM 5,5′-dithiobis(2-nitrobenzoic acid) in 0.1 M phosphate buffer (pH 7) containing 6 mM NaHCO3, 20 μL of the test compounds at different concentrations in methanol, and 40 μL of 0.15 unit/mL AChE in phosphate buffer (pH 8) were incubated at 37 °C for 20 min. Subsequently, 20 μL of 5 mM acetylthiocholine iodide in water was added, and the absorbance was measured at 412 nm every 20 s for 3 min. The rate of each reaction was calculated by Microplate Manager software.
The blank percentage of inhibition of the tested compounds was determined by comparing the rate of the sample to the blank. The IC50 value was determined by nonlinear regression of the log inhibitor concentration versus the percentage of inhibition using GraphPad Prism6. Donepezil hydrochloride and tacrine were applied as the reference compounds. All samples were assayed in triplicate.

[2] = Cytotoxicity against MRC-5 normal embryonic lung cell; assay type: cell-based; details: human, MRC-5 normal embryonic lung cells; concentration of 50 μg/mL
Excerpt: For chlorine as a substituent, the activity followed the order of ortho > meta > para. […] For fluorine as a substituent, the activity also followed the order of ortho > meta ≈ para. […].

T1 sequence (O42275 24-633): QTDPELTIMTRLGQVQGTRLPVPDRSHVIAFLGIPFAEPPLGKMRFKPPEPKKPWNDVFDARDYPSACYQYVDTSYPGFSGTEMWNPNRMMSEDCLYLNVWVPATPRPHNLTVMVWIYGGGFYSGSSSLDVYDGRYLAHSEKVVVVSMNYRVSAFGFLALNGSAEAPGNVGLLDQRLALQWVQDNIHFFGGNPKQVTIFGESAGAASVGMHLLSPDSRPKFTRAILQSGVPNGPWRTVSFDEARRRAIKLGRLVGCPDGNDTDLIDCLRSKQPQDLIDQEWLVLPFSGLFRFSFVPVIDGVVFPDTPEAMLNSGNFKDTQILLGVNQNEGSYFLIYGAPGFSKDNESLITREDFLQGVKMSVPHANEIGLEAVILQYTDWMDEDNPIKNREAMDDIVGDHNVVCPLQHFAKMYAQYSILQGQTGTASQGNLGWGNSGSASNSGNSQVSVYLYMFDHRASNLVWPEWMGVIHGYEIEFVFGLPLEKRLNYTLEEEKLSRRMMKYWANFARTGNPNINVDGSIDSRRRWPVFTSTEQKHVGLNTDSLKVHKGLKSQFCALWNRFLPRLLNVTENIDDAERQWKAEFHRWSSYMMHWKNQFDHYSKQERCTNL

Compound	inhibition at 1 µM [1]	IC50 [1]	other results
COc1cc2cc(NC(=O)c3ccncc3)c(=O)oc2cc1OC [compound 9]	< 10%		
COc1cc2cc(NC(=O)Cc3cc[n+](Cc4ccccc4)cc3)c(=O)oc2cc1OC [compound 10a]		1087.7 ± 0.05 nM	
COc1cc2cc(NC(=O)c3cc[n+](Cc4ccc(F)cc4)cc3)c(=O)oc2cc1OC [compound 9g]		5.31 ± 0.38 nM	
COc1cc2cc(NC(=O)c3cc[n+](Cc4cccc(Cl)c4)cc3)c(=O)oc2cc1OC [compound 9c]		11.5 ± 0.63 nM	
COc1cc2cc(NC(=O)c3cc[n+](Cc4ccccc4)cc3)c(=O)oc2cc1OC [compound 9a]		12.5 ± 0.71 nM	
COc1cc2cc(NC(=O)c3cc[n+](Cc4ccccc4Cl)cc3)c(=O)oc2cc1OC [compound 9b]		6.03 ± 0.18 nM	
COc1cc2cc(N)c(=O)oc2cc1OC [compound 8]	5%		
COc1cc2cc(NC(=O)c3cc[n+](Cc4ccccc4F)cc3)c(=O)oc2cc1OC [compound 9e]		3.05 ± 0.28 nM	
O=C(Cc1cc[n+](Cc2ccccc2)cc1)Nc1cc2ccccc2oc1=O [compound 5a]	10%		
COc1cc2cc(NC(=O)c3cc[n+](Cc4cccc(F)c4)cc3)c(=O)oc2cc1OC [compound 9f]		5.04 ± 0.26 nM	
COc1cc2cc(NC(=O)c3cc[n+](Cc4c(F)cccc4F)cc3)c(=O)oc2cc1OC [compound 9i]		2.43 ± 0.18 nM	
COc1cc2cc(NC(=O)c3cc[n+](Cc4cccc(F)c4F)cc3)c(=O)oc2cc1OC.[Br-] [compound 9h]		1.53 ± 0.01 nM	fold lower IC50 than donepezil hydrochloride [1]: 35 fold; fold lower IC50 than tacrine [1]: 124 fold; cytotoxicity at 50 μg/mL [2]: 0%
COc1cc2cc(NC(=O)Cc3ccncc3)c(=O)oc2cc1OC [compound 10]	< 10%		
COc1cc2cc(NC(=O)c3cc[n+](Cc4ccc(Cl)cc4)cc3)c(=O)oc2cc1OC [compound 9d]		293 ± 13.6 nM	
O=C(Cc1ccncc1)Nc1cc2ccccc2oc1=O [compound 5]	< 10%		
O=C(Nc1cc2ccccc2oc1=O)c1cc[n+](Cc2ccccc2)cc1 [compound 4a]		71.9 ± 3.4 nM	
Nc1cc2ccccc2oc1=O [compound 3, 3-aminocoumarin]	12%		
